Data taken from patent US20190382346A1, “(NITRO-PHENYL)-NITROPYRIDINE COMPOUNDS FOR TREATING SYNUCLEINOPATHIES” (UNIVERSITAT AUTONOMA DE BARCELONA, priority 2017, published 2019).

How the values were obtained:
[1] = in vitro; format: cell-based; settings: human
Procedure: Cultured cells of human neuroblastoma cell line SH-SY5Y were incubated for 72 h with either the vehicle (DMSO) or with different concentrations of the compound. Then, the cells were incubated with a cell viability indicator (PrestoBlue® Cell Viability Reagent). The modification of PrestoBlue® Cell Viability Reagent by the reducing environment of viable cells turns the dye red in color becoming highly fluorescent. This color change can be detected measuring fluorescence by exciting at 531 nm and detecting emission at 615 nm. The CC50 of compound D (concentration that caused death in 50% of the cells, i.e. reduction to 50% viability) was >700 μM (FIG. 6).

[2] = target: T1, human A30P mutant α-synuclein (Homo sapiens, UniProt P37840, A30P); assay: thioflavin-T aggregation assay, A30P mutant; format: biochemical; settings: 100 μM compound, 70 μM α-synuclein, 24 h
T1 construct: made in house; host or cells: E. coli BL21 (DE3)
Procedure: (§1) Previously lyophilized α-synuclein was carefully dissolved in PBS buffer to a final concentration of 210 μM and filtered through a Millipore s 0.22-μm filter. α-synuclein aggregation assay was performed in a 96 wells plate (non-treated, black plastic) containing in each well a Teflon polyball (3.175 mm in diameter), 40 μM thioflavin-T, 70 μM α-synuclein, 100 μM of the tested compound and PBS up to a final volume of 150 μL. Plates were fixed into an orbital culture shaker Max-Q 4000 Thermo Scientific to keep the incubation at 37° C., 100 rpm. Every 2 hours, the fluorescence intensity was measured using a Victor3.0 Multilabel Reader by exciting the mixtures with 430-450 filter and collecting the emission intensity with 480-510 filter (triplicates for each measurement). Each plate contained 3 α-synuclein controls in the absence of any compound. The averaged Th-T fluorescence obtained for these wells at the end of the experiment was normalized to 1 and the kinetic curves in the different wells re-scaled accordingly. Re-scaled curves were used to compare the controls with the effect of the tested compound and to ensure that the controls were reproducible between different experiments. […] After 2 weeks, scattering of the samples was analyzed at 300 nm and 340 nm using a Varian fluorimeter. […] Every 2 hours, the thioflavin-T fluorescence intensity was measured as described above.

[3] = target: T2, human H50Q mutant α-synuclein (Homo sapiens, UniProt P37840, H50Q); assay: thioflavin-T aggregation assay, H50Q mutant; format: biochemical; settings: 100 μM compound, 70 μM α-synuclein, 24 h
T2 construct: made in house; host or cells: E. coli BL21 (DE3)
Procedure: as §1

[4] = target: T3, human wild-type α-synuclein (Homo sapiens, UniProt P37840); assay: α-synuclein aggregation and thioflavin-T assay; format: biochemical
T3 construct: made in house; host or cells: E. coli BL21 (DE3)
Procedure: Previously lyophilized α-synuclein was carefully dissolved in PBS buffer to a final concentration of 210 μM and filtered through a Millipore s 0.22-μm filter. α-synuclein aggregation assay was performed in a 96 wells plate (non-treated, black plastic) containing in each well a Teflon polyball (3.175 mm in diameter), 40 μM thioflavin-T, 70 μM α-synuclein, 100 μM of the tested compound and PBS up to a final volume of 150 μL. Plates were fixed into an orbital culture shaker Max-Q 4000 Thermo Scientific to keep the incubation at 37° C., 100 rpm. Every 2 hours, the fluorescence intensity was measured using a Victor3.0 Multilabel Reader by exciting the mixtures with 430-450 filter and collecting the emission intensity with 480-510 filter (triplicates for each measurement). Each plate contained 3 α-synuclein controls in the absence of any compound. The averaged Th-T fluorescence obtained for these wells at the end of the experiment was normalized to 1 and the kinetic curves in the different wells re-scaled accordingly. Re-scaled curves were used to compare the controls with the effect of the tested compound and to ensure that the controls were reproducible between different experiments. For the titration assay, different concentrations of tested compound (200, 150, 100, 75 and 25 μM) were used. For the scattering assay, 70 μM α-synuclein, 100 μM of the tested compound or DMSO (in control samples) and PBS up to a final volume of 1 mL were incubated in low-binding plastic tubes (Protein LoBind Tube 1.5 mL, Eppendorf) using a thermomixer (Thermomixer comfort, Eppendorf) at 37° C. and 600 rpm. After 2 weeks, scattering of the samples was analyzed at 300 nm and 340 nm using a Varian fluorimeter.
Each sample was tested in triplicate. Each plate contained an also triplicated control without tested compound.
In the aggregation assay described above, α-synuclein aggregates within approximately 24 h with a sigmoidal aggregation curve.

[5] = target: T4, α-synuclein fibrils (Homo sapiens, UniProt P37840); assay: Transmission Electron Microscopy of α-synuclein fibrils at end of aggregation reaction; format: biochemical; settings: end of the aggregation reaction
T4 construct: made in house; host or cells: E. coli BL21 (DE3)
Procedure: α-synuclein fibers from final point reaction (either in absence or presence of the final concentration inhibitors) were collected in Eppendorfs. After diluting the aggregated α-synuclein to a concentration of 10 μM α-synuclein, each sample was sonicated for 10 minutes. 5 μL of these samples were placed on carbon-coated copper grids and allowed to stand for 5 minutes. Then, samples were carefully dried with filter paper to remove the excess of sample. Grids were washed twice with MiliQ water by immersion and stained by incubating grids with 5 μL 2% (w/v) uranyl acetate for 2 minutes for the negative staining. After removal of the uranyl acetate excess with filter paper, grids were let to air-dry for 10 minutes. The samples were imaged using a Jeol 1400 Transmission Electron Microscopy operating at an accelerating voltage of 120 kV. 30 fields were screened at least, to obtain representative images.

[6] = target: T3, human wild-type α-synuclein; assay: α-synuclein aggregation scattering assay; format: biochemical; settings: 100 μM compound, 70 μM α-synuclein, 2 weeks, 37° C., 600 rpm
Procedure: Previously lyophilized α-synuclein was carefully dissolved in PBS buffer to a final concentration of 210 μM and filtered through a Millipore s 0.22-μm filter. α-synuclein aggregation assay was performed in a 96 wells plate (non-treated, black plastic) containing in each well a Teflon polyball (3.175 mm in diameter), 40 μM thioflavin-T, 70 μM α-synuclein, 100 μM of the tested compound and PBS up to a final volume of 150 μL. Plates were fixed into an orbital culture shaker Max-Q 4000 Thermo Scientific to keep the incubation at 37° C., 100 rpm. Every 2 hours, the fluorescence intensity was measured using a Victor3.0 Multilabel Reader by exciting the mixtures with 430-450 filter and collecting the emission intensity with 480-510 filter (triplicates for each measurement). Each plate contained 3 α-synuclein controls in the absence of any compound. The averaged Th-T fluorescence obtained for these wells at the end of the experiment was normalized to 1 and the kinetic curves in the different wells re-scaled accordingly. Re-scaled curves were used to compare the controls with the effect of the tested compound and to ensure that the controls were reproducible between different experiments. […] After 2 weeks, scattering of the samples was analyzed at 300 nm and 340 nm using a Varian fluorimeter. […]

[7] = test system: human wild-type α-synuclein fused to yellow fluorescent protein (YFP); assay: C. elegans α-synuclein aggregation model; format: in vivo; settings: 10 μM compound, 5 days from L4 stage, strain NL5901
Procedure: α-synuclein aggregation was assessed using an C. elegans in vivo model described by (Van Ham et al., 2008) and (Muñoz-Lobato et al., 2014).
The nematode strain NL5901, unc-119(ed3) III; [pkls2386 (Punc-54::α-syn::yfp; unc-119(+))] was obtained from the Caenorhabditis elegans Genetic Center (CGC), University of Minnesota, USA. The strain expresses a fusion of human wildtype α-synuclein and yellow fluorescent protein (YFP) in body wall muscle cells. The nematodes were maintained using standard procedures, grown in NGM agar plates and fed with E coli (OP50 strain). Adult worms were bleached to get synchronized nematode cultures. NGM-agar plates with a) DMSO only (vehicle) and b) 10 μM final concentration of the tested compound were prepared. Afterwards, OP50 containing a) or b) was added to NGM plates and let dry for 24 h. […] After 5 days of development (L4+5) the numbers of α-synuclein aggregates were determined using a fluorescence microscope. […] The same section in each animal was analyzed and captured in stacks to include aggregates contained from the top to the bottom of each animal ([…], 25 stacks). Image analysis was performed using ImageJ software, from the Z MAX acquisition, quantifying the number of α-synuclein-YFP aggregates. Final quantification and statistics was performed by the Graph Pad Prism 6.0 software, comparing vehicle-treated worms with drug-treated animals. […]

[8] = 70 μM α-synuclein, 100 μM compound, 37° C.

N#Cc1c(O)nc(-c2cccc([N+](=O)[O-])c2)c([N+](=O)[O-])c1C(F)(F)F [compound D, 2-hydroxy-5-nitro-6-(3-nitrophenyl)-4-(trifluoromethyl)nicotinonitrile]
CC50 at 72 h [1]: > 700 µM
inhibition of human A30P mutant α-synuclein aggregation (thioflavin-T fluorescence) [2]: inhibits
inhibition of human H50Q mutant α-synuclein aggregation (thioflavin-T fluorescence) [3]: inhibits
delay of halftime of aggregation relative to the control [4, 8]: 3 h
inhibition of α-synuclein aggregation at the end of the aggregation reaction relative to the control (thioflavin-T fluorescence) [4, 8]: 32.4%
anti-aggregation activity in titration assays ([4]; 200, 150, 100, 75 and 25 μM compound, 70 μM α-synuclein): clear dose-dependent anti-aggregation activity
k1 (nucleation rate constant), Finke-Watzky two-step model ([4]; fitted aggregation curves): decreased
k2 (growth rate constant), Finke-Watzky two-step model ([4]; fitted aggregation curves): decreased
activity at sub-stoichiometric protein:compound ratios ([4]; titration assay, 70 μM α-synuclein): showed activity
number and size of α-synuclein fibrils compared to control (TEM) [5]: significant decrease in both number and size of α-synuclein fibrils
inhibition of human wild-type α-synuclein aggregation (scattering at 300 nm and 340 nm) [6]: inhibits
α-synuclein-YFP protein inclusions in muscle cells of the worms [7]: significantly decreased
